One series has as its target T1, RXFP1 (Homo sapiens, UniProt Q9HBX9).
T1 sequence (Q9HBX9 1-757): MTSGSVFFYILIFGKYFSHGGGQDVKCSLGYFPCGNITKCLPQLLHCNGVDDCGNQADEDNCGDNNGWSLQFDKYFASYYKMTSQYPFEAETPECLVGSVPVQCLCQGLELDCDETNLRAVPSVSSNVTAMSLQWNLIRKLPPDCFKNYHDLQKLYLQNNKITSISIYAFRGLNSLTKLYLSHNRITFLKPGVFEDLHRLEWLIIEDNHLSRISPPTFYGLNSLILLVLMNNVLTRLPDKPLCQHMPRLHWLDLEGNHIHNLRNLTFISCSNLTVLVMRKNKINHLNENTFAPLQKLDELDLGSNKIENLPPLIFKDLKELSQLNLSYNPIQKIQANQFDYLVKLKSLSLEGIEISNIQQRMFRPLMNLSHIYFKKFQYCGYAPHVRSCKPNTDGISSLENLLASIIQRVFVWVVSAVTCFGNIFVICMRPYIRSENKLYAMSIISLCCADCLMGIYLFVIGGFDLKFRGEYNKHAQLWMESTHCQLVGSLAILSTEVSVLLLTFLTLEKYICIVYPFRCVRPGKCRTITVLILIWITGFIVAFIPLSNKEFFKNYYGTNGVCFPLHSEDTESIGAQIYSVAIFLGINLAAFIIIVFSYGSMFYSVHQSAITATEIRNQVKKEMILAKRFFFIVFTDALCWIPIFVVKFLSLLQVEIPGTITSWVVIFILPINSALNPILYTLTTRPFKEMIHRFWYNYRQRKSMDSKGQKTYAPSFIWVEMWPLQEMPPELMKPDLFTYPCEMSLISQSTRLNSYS
Nature of the series: OVCAR5 cAMP assay (RXFP1 agonist activity, HTRF). The note with it: for Emax: OVCAR-5, read-out: cAMP assay in OVCAR 5 cells Emax, maximal intracellular cAMP relative to H2-relaxin in the same test occasion.

A further series can be described thus: Stability in rat plasma. The format is in vitro ADME. Conditions: 37° C., 5 μM, T = 0. As to the method:
(§1) Prior to the testing of stability in plasma of a peptide batch, its purity (HPLC-UV) was determined.
(§2) Rat and Human plasma: anti-coagulant sodium or lithium heparin.
(§3) 100 μM solution of study compound in 50 mM Phosphate buffer pH 7.4.
(§4) 950 μL plasma is pre-incubated for 5 min at 37° C. 50 μL of compound stock solution is added. Final compound concentration=5 μM. Vortex and transfer 1504, plasma into an Eppendorf for each time point. The time points 0-1 and −4 h are carried out in duplicate for each species.
(§5) After incubation extract 1504, plasma with 6004, Acetonitrile containing with 1% TFA. Vortex and centrifuge 10 min at 14600 rpm. Dry 2004, supernatant under N2. Reconstitute sample in 200 μL of H2O/CH3CN 98/2+0.1% FA+50 ng/ml Labetalol and analyze using the analytical system used in solubility and stability studies.
(§6) For determination of the amount of the remaining peptide, the peak areas of the target compound at t0 and each time point […] were compared, resulting in “% remaining peptide”, following the equation
(§7) % remaining peptide=[(peak area peptide time)×100]/peak area peptide t0. The stability is expressed as “% remaining peptide”.

Series [1] is described as follows: Stability in human plasma. The note with it: 37° C., 5 μM, T = 0. The series is classed as in vitro ADME. How it is done: as §1, §2, §3, §4, §5, §6, §7

Non-standard residues stand in square brackets, D forms with d. Residues, ends and D or L forms follow the SMILES beside them. αMeL = CC(C)C[C@](C)(N)C(=O)O; Nle = CCCC[C@H](N)C(=O)O; Aib = CC(C)(N)C(=O)O

Regarding `CC[C@H](C)[C@H](NC(=O)C(C)(C)NC(=O)[C@H](C)NC(=O)[C@H](CCCNC(=N)N)NC(=O)[C@@H](NC(=O)[C@H](CCCCN)NC(=O)[C@H](CCC(=O)O)NC(=O)[C@H](CCCNC(=N)N)NC(=O)CNC(=O)[C@H](CCC(=O)O)NC(=O)[C@H](CC(C)C)NC(C)=O)C(C)C)C(=O)NC(C)(C)C(=O)NC(C)(C)C(=O)N[C@@H](CCC(=O)O)C(=O)NCC(=O)N[C@@H](CCSC)C(=O)N[C@@H](CO)C(=O)N[C@H](C(=O)N[C@@H](Cc1c[nH]c2ccccc12)C(=O)N[C@@H](CO)C(=O)NC(C)(C)C(=O)N[C@@H](CCCNC(=N)N)C(N)=O)[C@@H](C)O` [compound 43] (Ac-LEGREKVRA[Aib]I[Aib][Aib]EGMSTWS[Aib]R-NH2), the Emax (as a rule, the maximal effect, on the per cent scale that the assay sets) on RXFP1 turned out to be 104%.

Take `CCCC[C@H](NC(=O)CNC(=O)[C@H](CCC(=O)O)NC(=O)C(C)(C)NC(=O)C(C)(C)NC(=O)[C@@H](NC(=O)[C@H](CCC(N)=O)NC(=O)[C@H](C)NC(=O)[C@H](CCCNC(=N)N)NC(=O)[C@@H](NC(=O)[C@H](CCCCN)NC(=O)[C@H](CCC(=O)O)NC(=O)[C@H](CCCNC(=N)N)NC(=O)CNC(=O)[C@H](CCC(=O)O)NC(=O)[C@H](CC(C)C)NC(C)=O)C(C)C)[C@@H](C)CC)C(=O)N[C@@H](CO)C(=O)N[C@H](C(=O)N[C@@H](Cc1c[nH]c2ccccc12)C(=O)N[C@@H](CO)C(=O)NC(C)(C)C(=O)N[C@@H](CCCNC(=N)N)C(=O)N[C@@H](CCCCN)C(N)=O)[C@@H](C)O` [compound 44] (Ac-LEGREKVRAQI[Aib][Aib]EG[Nle]STWS[Aib]RK-NH2): the Emax on RXFP1 was 101%.

For `CC[C@H](C)[C@H](NC(=O)[C@H](CCC(N)=O)NC(=O)[C@H](C)NC(=O)[C@H](CCCNC(=N)N)NC(=O)[C@@H](NC(=O)[C@H](CCCCN)NC(=O)[C@H](CCC(=O)O)NC(=O)[C@H](CCCNC(=N)N)NC(=O)CNC(=O)[C@H](CCC(=O)O)NC(=O)[C@H](CC(C)C)NC(C)=O)C(C)C)C(=O)NC(C)(C)C(=O)NC(C)(C)C(=O)N[C@@H](CCC(=O)O)C(=O)NCC(=O)N[C@@H](CCSC)C(=O)N[C@@H](CO)C(=O)N[C@H](C(=O)N[C@@H](Cc1c[nH]c2ccccc12)C(=O)N[C@@H](CO)C(=O)NC(C)(C)C(=O)N[C@@H](CCCNC(=N)N)C(=O)N[C@@H](CCCCN)C(N)=O)[C@@H](C)O` [compound 45] (Ac-LEGREKVRAQI[Aib][Aib]EGMSTWS[Aib]RK-NH2), at RXFP1, the Emax was determined as 98%.

For `CC[C@H](C)[C@H](NC(=O)[C@H](CCC(N)=O)NC(=O)[C@H](C)NC(=O)[C@H](CCCNC(=N)N)NC(=O)[C@@H](NC(=O)[C@H](CCCCN)NC(=O)[C@H](CCC(=O)O)NC(=O)[C@H](CCCNC(=N)N)NC(=O)CNC(=O)[C@H](CCC(=O)O)NC(=O)[C@H](CC(C)C)NC(C)=O)C(C)C)C(=O)NC(C)(C)C(=O)NC(C)(C)C(=O)N[C@@H](CCC(=O)O)C(=O)NCC(=O)N[C@@H](CCSC)C(=O)N[C@@H](CO)C(=O)N[C@@H](CCCCN)C(=O)N[C@@H](Cc1c[nH]c2ccccc12)C(=O)N[C@@H](CO)C(=O)NC(C)(C)C(=O)N[C@@H](CCCNC(=N)N)C(N)=O` [compound 46] (Ac-LEGREKVRAQI[Aib][Aib]EGMSKWS[Aib]R-NH2), the Emax at RXFP1 was found to be 82%.

Consider `CCCC[C@H](NC(=O)CNC(=O)[C@H](CCC(=O)O)NC(=O)C(C)(C)NC(=O)C(C)(C)NC(=O)[C@@H](NC(=O)[C@H](CCCCNC(C)=O)NC(=O)[C@H](C)NC(=O)[C@H](CCCNC(=N)N)NC(=O)[C@@H](NC(=O)[C@H](CCCCN)NC(=O)[C@H](CCC(=O)O)NC(=O)[C@H](CCCNC(=N)N)NC(=O)CNC(=O)[C@H](CCC(=O)O)NC(=O)[C@H](CC(C)C)NC(C)=O)C(C)C)[C@@H](C)CC)C(=O)N[C@@H](CO)C(=O)N[C@H](C(=O)N[C@@H](Cc1c[nH]c2ccccc12)C(=O)N[C@@H](CO)C(=O)NC(C)(C)C(=O)N[C@@H](CCCNC(=N)N)C(=O)N[C@@H](CCCCN)C(N)=O)[C@@H](C)O` [compound 47] (Ac-LEGREKVRAK(Ac)I[Aib][Aib]EG[Nle]STWS[Aib]RK-NH2), for which the Emax at RXFP1 was 94%.

For the compound `CCCC[C@H](NC(=O)CNC(=O)[C@H](CCC(=O)O)NC(=O)C(C)(C)NC(=O)C(C)(C)NC(=O)[C@@H](NC(=O)[C@H](C)NC(=O)[C@H](C)NC(=O)[C@H](CCCNC(=N)N)NC(=O)[C@@H](NC(=O)[C@H](CCCCN)NC(=O)[C@H](CCC(=O)O)NC(=O)[C@H](CCCNC(=N)N)NC(=O)CNC(=O)[C@H](CCC(=O)O)NC(=O)[C@H](CC(C)C)NC(=O)[C@H](CCC(=O)O)NC(C)=O)C(C)C)[C@@H](C)CC)C(=O)N[C@@H](CO)C(=O)N[C@H](C(=O)N[C@@H](Cc1c[nH]c2ccccc12)C(=O)N[C@@H](CO)C(=O)NC(C)(C)C(=O)N[C@@H](CCCNC(=N)N)C(=O)N[C@@H](CCCCN)C(=O)N[C@@H](CCCCN)C(N)=O)[C@@H](C)O` [compound 48] (Ac-ELEGREKVRAAI[Aib][Aib]EG[Nle]STWS[Aib]RKK-NH2), the maximal response (Emax) at RXFP1 is 91%.

Turning to `CCCC[C@H](NC(=O)CNC(=O)[C@H](CCC(=O)O)NC(=O)C(C)(C)NC(=O)C(C)(C)NC(=O)[C@@H](NC(=O)[C@H](CCCCNC(C)=O)NC(=O)[C@H](C)NC(=O)[C@H](CCCNC(=N)N)NC(=O)[C@@H](NC(=O)[C@H](CCCCN)NC(=O)[C@H](CCC(=O)O)NC(=O)[C@H](CCCNC(=N)N)NC(=O)CNC(=O)[C@H](CCC(=O)O)NC(=O)[C@](C)(CC(C)C)NC(C)=O)C(C)C)[C@@H](C)CC)C(=O)N[C@@H](CO)C(=O)N[C@H](C(=O)N[C@@H](Cc1c[nH]c2ccccc12)C(=O)N[C@@H](CO)C(=O)NC(C)(C)C(=O)N[C@@H](CCCNC(=N)N)C(=O)N[C@@H](CCCCN)C(=O)N[C@@H](CCCCNC(C)=O)C(N)=O)[C@@H](C)O` [compound 56] (Ac-[αMeL]EGREKVRAK(Ac)I[Aib][Aib]EG[Nle]STWS[Aib]RKK(Ac)-NH2), the Emax at RXFP1 turned out to be 95%.

Consider `CC[C@H](C)[C@H](NC(=O)[C@H](CCC(N)=O)NC(=O)[C@H](C)NC(=O)[C@H](CCCNC(=N)N)NC(=O)[C@@H](NC(=O)[C@H](CCCCN)NC(=O)[C@H](CCC(=O)O)NC(=O)[C@H](CCCNC(=N)N)NC(=O)CNC(=O)[C@H](CCC(=O)O)NC(=O)[C@H](CC(C)C)NC(C)=O)C(C)C)C(=O)NC(C)(C)C(=O)NC(C)(C)C(=O)N[C@@H](CCC(=O)O)C(=O)NCC(=O)N[C@@H](CCC(N)=O)C(=O)N[C@@H](CO)C(=O)N[C@H](C(=O)N[C@@H](Cc1ccccc1)C(=O)N[C@@H](CO)C(=O)NC(C)(C)C(=O)N[C@@H](CCCNC(=N)N)C(=O)N[C@@H](CCCCN)C(=O)N[C@@H](CCCCN)C(N)=O)[C@@H](C)O` [compound 57] (Ac-LEGREKVRAQI[Aib][Aib]EGQSTFS[Aib]RKK-NH2), for which the Emax at RXFP1 worked out at 91%. Besides, a half-maximal response at RXFP1 (cAMP assay in OVCAR 5 cells EC50 (nM), OVCAR5 cells expressing endogenous RXFP1, cAMP by HTRF, 30 min at 37° C., 1 mM IBMX) (EC50) required 24.4 nM.

Regarding “Ac-VIKLSGRELVRAQIAISGMSTWSKKKK-NH2 [KKKK(AcB7-29 C11.23S), reference compound]”, the “Rat plasma stability % remaining, T = 0” value in “Stability in rat plasma” is reported as 100%. The “Human Plasma stability % remaining, T = 0” value in series [1] was 100%.

In the case of “Ac-VIKLSGRELVRAQIAISGMSTWSKRSL-NH2 [AcB7-33 C11.23S, reference compound]”, in the series “Stability in rat plasma”, the “Rat plasma stability % remaining, T = 0” value was 100%. Further, the “Human Plasma stability % remaining, T = 0” value in series [1] is listed as 100%.

As to “H-VIKLSGRELVRAQIAISGMSTWSKRSL-NH2 [B7-33 C11.23S, reference compound]”, the “Rat plasma stability % remaining, T = 0” value in “Stability in rat plasma” is recorded as 100%. Besides, the “Human Plasma stability % remaining, T = 0” value in series [1] is 100%.
